Results published in paper PMC11002876, “KcsA-Kv1.x chimeras with complete ligand-binding sites provide improved predictivity for screening selective Kv1.x blockers” (The Journal of Biological Chemistry, 2024).
Like-named read-outs stand apart in the source and are kept apart here. Where a SMILES comes first, the peptide text is derived from it.

Columns and labels:
KcsA-Kv1.1 T+F chimera [1] = target: T1, KcsA-Kv1.1 T+F chimera (Streptomyces lividans, UniProt P0A334, A54E/A57S/G53E/G56E/I60S/L59F/L81M/P55A/Q58H/R52A/R64D/T61S/Y62I); assay: Phage-binding competition assay, KcsA-Kv1.1 T+F; design: species or system human Kv1.1 turret and filter in Streptomyces lividans KcsA
T1 sequence (P0A334 1-160 R52A/G53E/A54E/P55A/G56E/A57S/Q58H/L59F/I60S/T61S/Y62I/R64D/L81M): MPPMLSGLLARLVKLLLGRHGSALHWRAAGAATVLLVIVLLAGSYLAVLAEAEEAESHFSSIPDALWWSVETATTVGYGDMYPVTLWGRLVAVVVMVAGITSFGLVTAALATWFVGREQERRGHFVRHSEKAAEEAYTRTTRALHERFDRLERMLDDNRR
Description: (§1) Phage stock solutions were diluted to working concentration with phage resuspension buffer supplemented with 2 mM DDM. For protein immobilization, the following amounts were used in a final volume of 50 μl/well: wt KcsA, 0.1 μg; KcsA-Kv1.1 T-only, 0.005 μg; KcsA-Kv1.1 T+F, 0.02 μg; KcsA-Kv1.2 T-only, 0.01 μg; KcsA-Kv1.2 T+F, 0.1 μg; KcsA-Kv1.3 T-only, 0.01 μg; and KcsA-Kv1.3 T+F, 0.1 μg. Protein samples were diluted in 50 μl of storage buffer (20 mM Tris pH8.0, 300 mM KCl, 2 mM DDM) and were added to the designated wells of a Pierce Clear, 96-Well Nickel Coated Plate (15442, Thermo Fisher Scientific), then incubated for 1 h at room temperature on a horizontal shaker at 130 rpm. The plate was blocked for 1 h at room temperature with 180 μl/well TBS-BSA supplemented with 1 mM DDM. Following blocking, the wells were washed 4× with washing buffer (300 μl TBS-Tween, 0.1% v/v) using a Wellwash Versa microplate washer (Thermo Fisher Scientific); then 50 μl phage solution (in TBS-BSA-Tween, 0.1% v/v, 2 mM DDM) at determined phage concentration was added to the wells and incubated for 1 h at room temperature on a horizontal shaker. The plate was washed 4× with washing buffer, then 50 μl anti-M13 IgG HRP (MA5-36125, Invitrogen) diluted to 1:2500 in TBS-Tween (0.1% v/v) was added to the wells and incubated for 1 h at room temperature. The plate was washed again 4× with 300 μl/well washing buffer. Finally, 50 μl/well 1-Step Ultra TMB-ELISA solution (34028, Thermo Fisher Scientific) was added to the wells, and the developing signal was stopped with 50 μl 1M HCl after 5 to 10 min. The light absorbance signal was read at 450 nm with Byonoy absorbance 96 plate reader (Byonoy GmbH).
(§2) For protein immobilization, the following amounts were used in a final volume of 50 μl/well: KcsA-Kv1.1 T-only, 0.005 μg; KcsA-Kv1.1 T+F, 0.01 μg; KcsA-Kv1.2 T-only, 0.025 μg; KcsA-Kv1.2 T+F, 0.0125 μg; KcsA-Kv1.3 T-only, 0.01 μg; and KcsA-Kv1.3 T+F, 0.1 μg. Protein samples were diluted in storage buffer. Binding of given concentrations of relevant ligand-displaying phages quantified by light absorbance ([…]) were investigated in a similar manner as in phage ELISA-binding assay, while different concentrations of competing toxin test substances were applied simultaneously. The results were converted to percent inhibitions (percent displacement) of the indicator phage binding, and relative affinities of the tested toxins were assessed by plotting percent displacements against log concentrations and determining half maximal inhibitory concentrations (IC50) by sigmoidal curve fitting using “Sigmoidal dose-response (variable slope) with least squares method” algorithm in GraphPad Prism 8 using the following equation: Y=Bottom+Top−Bottom/1+10^(LogEC50−×)⋅HillSlope

KcsA-Kv1.1 T+F chimera [2] = target: T2, KcsA-Kv1.1 T+F chimera (Streptomyces lividans, UniProt P0A334, R52A/G53E/A54E/P55A/G56E/A57S/Q58H/L59F/I60S/T61S/Y62I/R64D/L81M); assay: Phage-binding competition assay, KcsA-Kv1.1 T+F; design: species or system human Kv1.1 turret and filter in Streptomyces lividans KcsA; conditions: for competition binding to KcsA-Kv1.1 T+F, in words: ShK-phage competition, native peptide, Fig. 8F (ligand-binding pattern); for Rank, T+F chimera (Kv1.1): rank by competition IC50 among ShK, KTX1, MTX
T2 sequence (P0A334 1-160 R52A/G53E/A54E/P55A/G56E/A57S/Q58H/L59F/I60S/T61S/Y62I/R64D/L81M): T1 sequence (P0A334 1-160 R52A/G53E/A54E/P55A/G56E/A57S/Q58H/L59F/I60S/T61S/Y62I/R64D/L81M)
Description: as §1, §2

[3] = displacement of ShK-phage, KcsA-Kv1.1 T+F 0.01 μg/well on nickel-coated plate, mean ± SD (n = 3), NQ = not quantifiable, read-out: IC50, T+F chimera (Kv1.1)

Structure (SMILES)	IC50 (KcsA-Kv1.1 T+F chimera [1]; [3])	competition binding to KcsA-Kv1.1 T+F, in words (KcsA-Kv1.1 T+F chimera [2])	competition binding to KcsA-Kv1.1 T+F, in words (KcsA-Kv1.1 T+F chimera [2]; listed as MTX1)	Rank, T+F chimera (Kv1.1) (KcsA-Kv1.1 T+F chimera [2])	IC50 (KcsA-Kv1.1 T+F chimera [1]; ShK-phage competition, T+F KcsA-Kv1.1, value given in figure, sigmoidal fit to means of three replicates, read-out: IC50 (Fig. 8F))
CC[C@H](C)[C@@H]1NC(=O)[C@@H]2CSSC[C@H](NC(=O)[C@H](CO)NC(=O)[C@@H](N)C(C)C)C(=O)N[C@@H]([C@@H](C)O)C(=O)NCC(=O)N[C@@H](CO)C(=O)N[C@@H](CCCCN)C(=O)N[C@@H](CC(=O)O)C(=O)N[C@@H](CSSC[C@@H](C(=O)N[C@@H](CCCCN)C(=O)N[C@H]3CSSC[C@@H](C(N)=O)NC(=O)CNC(=O)[C@H](Cc4ccc(O)cc4)NC3=O)NC(=O)[C@H](CO)NC(=O)[C@H](CCCCN)NC(=O)[C@H](CC(N)=O)NC1=O)C(=O)N[C@@H](Cc1ccc(O)cc1)C(=O)N[C@@H](C)C(=O)N1CCC[C@H]1C(=O)N[C@H]1CSSC[C@H](NC(=O)CNC(=O)[C@H]([C@@H](C)O)NC(=O)[C@H](CCC(N)=O)NC(=O)[C@H](CCCCN)NC(=O)[C@H](CCCNC(=N)N)NC1=O)C(=O)N1CCC[C@H]1C(=O)N[C@@H](CC(N)=O)C(=O)N[C@@H](C)C(=O)N[C@@H](CCCCN)C(=O)N2 [MTX, Maurotoxin] (HELM PEPTIDE1{V.S.C.T.G.S.K.D.C.Y.A.P.C.R.K.Q.T.G.C.P.N.A.K.C.I.N.K.S.C.K.C.Y.G.C.[am]}$PEPTIDE1,PEPTIDE1,3:R3-24:R3|PEPTIDE1,PEPTIDE1,9:R3-29:R3|PEPTIDE1,PEPTIDE1,13:R3-19:R3|PEPTIDE1,PEPTIDE1,31:R3-34:R3$$$V2.0; N-terminus and C-terminus assumed)	> 1000 nM	ShK > KTX1 > MTX	negligible binding	3	–
CC[C@H](C)[C@@H]1NC(=O)[C@@H](NC(=O)[C@H](CO)NC(=O)[C@@H](N)CCCNC(=N)N)CSSC[C@@H](C(=O)O)NC(=O)[C@H]([C@@H](C)O)NC(=O)CNC(=O)[C@@H]2CSSC[C@@H]3NC(=O)[C@H](CCC(N)=O)NC(=O)[C@H](Cc4ccccc4)NC(=O)[C@H](C)NC(=O)[C@H]([C@@H](C)O)NC(=O)[C@H](CSSC[C@H](NC(=O)[C@H](Cc4ccccc4)NC(=O)[C@H](CO)NC(=O)[C@H](CC(C)C)NC(=O)[C@H](CCCNC(=N)N)NC(=O)[C@H](Cc4ccc(O)cc4)NC(=O)[C@H](CCCCN)NC(=O)[C@H](CCSC)NC(=O)[C@H](CO)NC(=O)[C@H](Cc4c[nH]cn4)NC(=O)[C@H](CCCCN)NC3=O)C(=O)N[C@@H](CCCNC(=N)N)C(=O)N[C@@H](CCCCN)C(=O)N[C@@H]([C@@H](C)O)C(=O)N2)NC(=O)[C@H](CCCNC(=N)N)NC(=O)[C@H](CO)NC(=O)[C@H](CCCCN)NC(=O)[C@@H]2CCCN2C(=O)[C@H]([C@@H](C)CC)NC(=O)[C@H]([C@@H](C)O)NC(=O)[C@H](CC(=O)O)NC1=O [ShK, Stichodactyla toxin]	–	ShK > KTX1 > MTX	–	1	0.271 nM
CC[C@H](C)[C@H](NC(=O)[C@H](CCC(=O)O)NC(=O)[C@@H](NC(=O)CN)C(C)C)C(=O)N[C@@H](CC(N)=O)C(=O)N[C@H](C(=O)N[C@@H](CCCCN)C(=O)N[C@H]1CSSC[C@@H]2NC(=O)[C@H](CCCCN)NC(=O)CNC(=O)[C@H](Cc3ccccc3)NC(=O)[C@H](CCCNC(=N)N)NC(=O)[C@H](CCSC)NC(=O)CNC(=O)[C@H](C)NC(=O)[C@H](CC(=O)O)NC(=O)[C@H](CCCCN)NC(=O)[C@@H]3CSSC[C@@H](C(=O)N[C@H](C(=O)N4CCC[C@H]4C(=O)N[C@@H](CCCCN)C(=O)O)[C@@H](C)O)NC(=O)[C@H](Cc4c[nH]cn4)NC(=O)[C@H](CSSC[C@H](NC(=O)[C@H](CCC(N)=O)NC(=O)[C@@H]4CCCN4C(=O)[C@H](CO)NC(=O)CNC(=O)[C@H](CO)NC1=O)C(=O)N[C@@H](CC(C)C)C(=O)N[C@@H](CCCCN)C(=O)N1CCC[C@H]1C(=O)N3)NC(=O)[C@H](CCCCN)NC(=O)[C@H](CCCNC(=N)N)NC(=O)[C@H](CC(N)=O)NC(=O)[C@H](CCSC)NC2=O)C(C)C [KTX1, Kaliotoxin-1]	1.49 nM	ShK > KTX1 > MTX	–	2	–
